Where “and” joins values, the source holds several entries; their conditions need not be identical. Identical values can stand only once.
Key:
HIV = assay: microbe, parasite or virus in culture; format: cell-based; conditions: in vitro acute model
HIV virus, ROJO in PBMC = assay: Reverse transcriptase activity against ROJO in PBMC; format: cell-based; parameters: Reverse Transcriptase Activity, Sample 1-3 / Reverse Transcriptase Activity, Mean: unit not given here; conditions: for Reverse Transcriptase Activity, Sample 1-3: individual samples
PBMC = assay: Toxicity values, XTT-based evaluation (cell titer O.D.), ROJO in PBMC; conditions: for Toxicity Values (Cell titer), Sample 1-3: individual samples
[1] = test system: Chronic HIV-1 infected cells U1; assay: Chronic HIV study, HIV replication in monocytes (U1 cells); format: cell-based
Method: (§1) Chronic HIV-1 infected cells U1 were derived from an acute HIV-1 infection of the promonocytic cell line, U937. The chronic HIV-1 infected cells, ACH-2 were derived from an acute HIV-1 infection of the T cell line, A3.01.
(§2) These cells were cultured in medium and the phorbol ester, PMA. PMA causes the cells (both U1 and ACH-2) to be activated and not divide but it also causes the U-1 cells to differentiate. […] Cell viability was measured when these cell lines were treated with the test compound.
(§3) Both cell lines constituitively produce a small amount of HIV-1. ACH-2 cell lines tend to produce more HIV-1 than U1 cells as shown by p-24 ELISA. When either cell line is cultured in the presence of PMA there is an increase in the quantity of HIV-1 produced as measured by the p-24 antigen ELISA.
(§4) In addition, the number of […] positive HIV mRNA expressing cells per microscopic field is measured. Comparisons can be made from these numbers since the same number of cells were adhered to the glass slides for each drug concentration (10×10^6 cells/ml).

[2] = test system: chronic HIV-1 infected cells, ACH-2; assay: Chronic HIV study, T-cell HIV replication (ACH-2 cells); format: cell-based; conditions: increase, not suppression
Method: as §1, §2, §3, §4

`c1ccc2[nH]c(-c3cscn3)nc2c1` [2-(4-thiazolyl)-1H-benzimidazole] showed an inhibition at 60 µg/mL (HIV; Human immunodeficiency virus 1, at 60 μg/ml, read-out: inhibited viral replication) of 98%.
For `Cc1cn([C@H]2C[C@H](N=[N+]=[N-])[C@@H](CO)O2)c(=O)[nH]c1=O` [AZT, reference compound], the “Reverse Transcriptase Activity, % virus control” value (HIV virus, ROJO in PBMC; 0.0004 μg/ml) was 101.5%, the “Reverse Transcriptase Activity, Sample 1-3” value (HIV virus, ROJO in PBMC; 0.0004 μg/ml) was 1.043 and 0.966 and 1.143 and the “Reverse Transcriptase Activity, % virus control” value (HIV virus, ROJO in PBMC; 0.0013 μg/ml) was 101.4%. For the same compound, the “Reverse Transcriptase Activity, % virus control” value (HIV virus, ROJO in PBMC; 0.004 μg/ml) was 98.5%, the “Reverse Transcriptase Activity, Mean” value (HIV virus, ROJO in PBMC; 0.004 μg/ml) was 1.019 and the “Reverse Transcriptase Activity, Sample 1-3” value (HIV virus, ROJO in PBMC; 0.004 μg/ml) was 1.005 and 1.004 and 1.048. The “Reverse Transcriptase Activity, % virus control” value (HIV virus, ROJO in PBMC; 0.013 μg/ml) was 101.2%, the “Reverse Transcriptase Activity, Sample 1-3” value (HIV virus, ROJO in PBMC; 0.013 μg/ml) was 1.024 and 1.061 and 1.056 and the “Reverse Transcriptase Activity, % virus control” value (HIV virus, ROJO in PBMC; 0.04 μg/ml) was 0.7%. For the same compound, the “Reverse Transcriptase Activity, Mean” value (HIV virus, ROJO in PBMC; 0.04 μg/ml) was 168, the “Reverse Transcriptase Activity, Sample 1-3” value (HIV virus, ROJO in PBMC; 0.04 μg/ml) was 176 and 108 and 220 and the “Reverse Transcriptase Activity, % virus control” value (HIV virus, ROJO in PBMC; 0.13 μg/ml) was 0.5%. For the same compound, the “Reverse Transcriptase Activity, Mean” value (HIV virus, ROJO in PBMC; 0.13 μg/ml) was 110.7, the “Reverse Transcriptase Activity, Sample 1-3” value (HIV virus, ROJO in PBMC; 0.13 μg/ml) was 108 and 168 and 56 and the “Reverse Transcriptase Activity, % virus control” value (HIV virus, ROJO in PBMC; 0.4 μg/ml) was 0.7%. For the same compound, the “Reverse Transcriptase Activity, Mean” value (HIV virus, ROJO in PBMC; 0.4 μg/ml) was 172, the “Reverse Transcriptase Activity, Sample 1-3” value (HIV virus, ROJO in PBMC; 0.4 μg/ml) was 340 and 80 and 96 and the “Reverse Transcriptase Activity, % virus control” value (HIV virus, ROJO in PBMC; 1.3 μg/ml) was “.04%”. For the same compound, the “Reverse Transcriptase Activity, Mean” value (HIV virus, ROJO in PBMC; 1.3 μg/ml) was 93.3, the “Reverse Transcriptase Activity, Sample 1-3” value (HIV virus, ROJO in PBMC; 1.3 μg/ml) was 68 and 120 and 92 and the “Reverse Transcriptase Activity, % virus control” value (HIV virus, ROJO in PBMC; 4 μg/ml) was 0.4%. The “Reverse Transcriptase Activity, Mean” value (HIV virus, ROJO in PBMC; 4 μg/ml) was 98.7, the “Reverse Transcriptase Activity, Sample 1-3” value (HIV virus, ROJO in PBMC; 4 μg/ml) was 108 and 104 and 84 and the inhibited viral replication (HIV; at 1 μg/ml) was 98%.
With `COC(=O)Nc1nc2ccccc2[nH]1` [Carbendazim, 2-(methoxycarbonylamino)benzimidazole] the “Toxicity Values (Cell titer), Mean” value (PBMC; 0.01 μg/ml) was 1.138 O.D. @ 490/650 nm, the “Toxicity Values, % cell control” value (PBMC; 0.01 μg/ml) was 109.9% and the “Toxicity Values (Cell titer), Sample 1-3” value (PBMC; 0.01 μg/ml) was 1.115 O.D. @ 490/650 nm and 1.180 O.D. @ 490/650 nm and 1.118 O.D. @ 490/650 nm. For the same compound, the “Toxicity Values (Cell titer), Mean” value (PBMC; 0.032 μg/ml) was 1.182 O.D. @ 490/650 nm, the “Toxicity Values, % cell control” value (PBMC; 0.032 μg/ml) was 114.2% and the “Toxicity Values (Cell titer), Sample 1-3” value (PBMC; 0.032 μg/ml) was 1.143 O.D. @ 490/650 nm and 1.198 O.D. @ 490/650 nm and 1.204 O.D. @ 490/650 nm. For the same compound, the “Toxicity Values (Cell titer), Mean” value (PBMC; 0.1 μg/ml) was 1.157 O.D. @ 490/650 nm, the “Toxicity Values, % cell control” value (PBMC; 0.1 μg/ml) was 111.8% and the “Toxicity Values (Cell titer), Sample 1-3” value (PBMC; 0.1 μg/ml) was 1.145 O.D. @ 490/650 nm and 1.080 O.D. @ 490/650 nm and 1.246 O.D. @ 490/650 nm. The “Toxicity Values (Cell titer), Mean” value (PBMC; 0.32 μg/ml) was 1.049 O.D. @ 490/650 nm, the “Toxicity Values, % cell control” value (PBMC; 0.32 μg/ml) was 101.4% and the “Toxicity Values (Cell titer), Sample 1-3” value (PBMC; 0.32 μg/ml) was 1.031 O.D. @ 490/650 nm and 1.050 O.D. @ 490/650 nm and 1.067 O.D. @ 490/650 nm. The “Toxicity Values (Cell titer), Mean” value (PBMC; 1 μg/ml) was 1.004 O.D. @ 490/650 nm, the “Toxicity Values, % cell control” value (PBMC; 1 μg/ml) was 97.0% and the “Toxicity Values (Cell titer), Sample 1-3” value (PBMC; 1 μg/ml) was 1.019 O.D. @ 490/650 nm and 1.003 O.D. @ 490/650 nm and 0.991 O.D. @ 490/650 nm. For the same compound, the “Toxicity Values (Cell titer), Mean” value (PBMC; 3.2 μg/ml) was 0.992 O.D. @ 490/650 nm, the “Toxicity Values, % cell control” value (PBMC; 3.2 μg/ml) was 95.8% and the “Toxicity Values (Cell titer), Sample 1-3” value (PBMC; 3.2 μg/ml) was 1.013 O.D. @ 490/650 nm and 1.003 O.D. @ 490/650 nm and 0.959 O.D. @ 490/650 nm. For the same compound, the “Toxicity Values (Cell titer), Mean” value (PBMC; 10 μg/ml) was 0.944 O.D. @ 490/650 nm, the “Toxicity Values, % cell control” value (PBMC; 10 μg/ml) was 91.2% and the “Toxicity Values (Cell titer), Sample 1-3” value (PBMC; 10 μg/ml) was 1.001 O.D. @ 490/650 nm and 0.858 O.D. @ 490/650 nm and 0.973 O.D. @ 490/650 nm. The “Toxicity Values (Cell titer), Mean” value (PBMC; 32 μg/ml) was 0.845 O.D. @ 490/650 nm, the “Toxicity Values, % cell control” value (PBMC; 32 μg/ml) was 81.6% and the “Toxicity Values (Cell titer), Sample 1-3” value (PBMC; 32 μg/ml) was 0.864 O.D. @ 490/650 nm and 0.835 O.D. @ 490/650 nm and 0.836 O.D. @ 490/650 nm. For the same compound, the “Toxicity Values (Cell titer), Mean” value (PBMC; 100 μg/ml) was 0.807 O.D. @ 490/650 nm, the “Toxicity Values, % cell control” value (PBMC; 100 μg/ml) was 77.9% and the “Toxicity Values (Cell titer), Sample 1-3” value (PBMC; 100 μg/ml) was 0.839 O.D. @ 490/650 nm and 0.782 O.D. @ 490/650 nm and 0.799 O.D. @ 490/650 nm. The “Reverse Transcriptase Activity, % virus control” value (HIV virus, ROJO in PBMC; 0.01 μg/ml) was 110.4%, the “Reverse Transcriptase Activity, Mean” value (HIV virus, ROJO in PBMC; 0.01 μg/ml) was 26107 and the “Reverse Transcriptase Activity, Sample 1-3” value (HIV virus, ROJO in PBMC; 0.01 μg/ml) was 24174 and 32124 and 22024. For the same compound, the “Reverse Transcriptase Activity, % virus control” value (HIV virus, ROJO in PBMC; 0.032 μg/ml) was 96.6%, the “Reverse Transcriptase Activity, Mean” value (HIV virus, ROJO in PBMC; 0.032 μg/ml) was 22851 and the “Reverse Transcriptase Activity, Sample 1-3” value (HIV virus, ROJO in PBMC; 0.032 μg/ml) was 23225 and 17108 and 19000. The “Reverse Transcriptase Activity, % virus control” value (HIV virus, ROJO in PBMC; 0.1 μg/ml) was 74.1%, the “Reverse Transcriptase Activity, Mean” value (HIV virus, ROJO in PBMC; 0.1 μg/ml) was 17513 and the “Reverse Transcriptase Activity, Sample 1-3” value (HIV virus, ROJO in PBMC; 0.1 μg/ml) was 1394.0 and 16747 and 12569. For the same compound, the “Reverse Transcriptase Activity, % virus control” value (HIV virus, ROJO in PBMC; 0.32 μg/ml) was 47.1%, the “Reverse Transcriptase Activity, Mean” value (HIV virus, ROJO in PBMC; 0.32 μg/ml) was 11143 and the “Reverse Transcriptase Activity, Sample 1-3” value (HIV virus, ROJO in PBMC; 0.32 μg/ml) was 200 and 8787 and 11249. For the same compound, the “Reverse Transcriptase Activity, % virus control” value (HIV virus, ROJO in PBMC; 1 μg/ml) was 3.7%, the “Reverse Transcriptase Activity, Mean” value (HIV virus, ROJO in PBMC; 1 μg/ml) was 885.3 and the “Reverse Transcriptase Activity, Sample 1-3” value (HIV virus, ROJO in PBMC; 1 μg/ml) was 1394 and 685.0 and 577.0. For the same compound, the “Reverse Transcriptase Activity, % virus control” value (HIV virus, ROJO in PBMC; 3.2 μg/ml) was 0.6%, the “Reverse Transcriptase Activity, Mean” value (HIV virus, ROJO in PBMC; 3.2 μg/ml) was 138.7 and the “Reverse Transcriptase Activity, Sample 1-3” value (HIV virus, ROJO in PBMC; 3.2 μg/ml) was 200 and 100 and 116. For the same compound, the “Reverse Transcriptase Activity, % virus control” value (HIV virus, ROJO in PBMC; 10 μg/ml) was 0.6%, the “Reverse Transcriptase Activity, Mean” value (HIV virus, ROJO in PBMC; 10 μg/ml) was 153.3 and the “Reverse Transcriptase Activity, Sample 1-3” value (HIV virus, ROJO in PBMC; 10 μg/ml) was 136 and 216 and 108. The “Reverse Transcriptase Activity, % virus control” value (HIV virus, ROJO in PBMC; 32 μg/ml) was 0.6%, the “Reverse Transcriptase Activity, Mean” value (HIV virus, ROJO in PBMC; 32 μg/ml) was 130.7 and the “Reverse Transcriptase Activity, Sample 1-3” value (HIV virus, ROJO in PBMC; 32 μg/ml) was 124 and 180 and 88.0. For the same compound, the “Reverse Transcriptase Activity, % virus control” value (HIV virus, ROJO in PBMC; 100 μg/ml) was 0.5%, the “Reverse Transcriptase Activity, Mean” value (HIV virus, ROJO in PBMC; 100 μg/ml) was 122.7 and the “Reverse Transcriptase Activity, Sample 1-3” value (HIV virus, ROJO in PBMC; 100 μg/ml) was 132 and 84.0 and 152.0. For the same compound, the “suppressed replication in the HIV monocytes” value [1] was 9%, the “T-cell HIV replication was increased” value [2] was 44% and the inhibition at 4 µg/mL (HIV; Human immunodeficiency virus 1, at 4 μg/ml, read-out: inhibited viral replication) was 100%.

— patent US20030149088A1, “HIV treatment” (priority 2000, published 2003)
